Assay results: ChEMBL document CHEMBL3430912, “GSK Tres Cantos Anti-Kinetoplastid Screening (TCAKS) Data”

Tests used:
[1] = GSK_TCAKS: pIC50 HepG2 human cell line viability assay using luminiscence. […] Seeding density was checked to ensure that new mono-layers were not more than 50% confluent at the time of harvesting. Cell suspension was added to 500 mL of the same medium at a final density of 1.2 * 10^5 cells/mL. This cell suspension was dispensed (25 uL, 3000 cells per well) into 384-well clear-bottom plates using a Multidrop Combi dispenser. Prior to addition of the cell suspension, the screening compounds (250 nL) were pre-dispensed into the plates with an Echo liquid handler. Plates were incubated for 48 h at 37C, 5% CO2. After incubation, plates equilibrated at room temperature for 30 min before proceeding to develop the luminescent signal. The signal developer, CellTiter-Glo Reagent, was allowed to equilibrate at room temperature for 30 min and added to the plates (25uL per well) using a Multidrop Combi dispenser. Plates were left for 10 min at room temperature for stabilization and then read using a ViewLux.; type: toxicity, cell-based
Trypanosoma cruzi [2] = assay: (§1) GSK_TCAKS: pIC50 Trypanosoma cruzi Imaging: Infected Cells. […] Cells were then washed once with PBS before infection. T. cruzi trypomastigotes, collected at days 5 to 8 after infection from LLC-MK2 parasite infected cultures, were allowed to swim out for 4h at 37C from a centrifuged pellet (2,500 rpm/10 min/room temperature). Trypomastigotes were then collected and counted in a CASY Cell Counter. Trypomastigotes, in supplemented DMEM, were added to H9c2 cultures in a multiplicity of infection of 1 and incubated for 18 h. Cells were washed once with PBS before incubation of the infected H9c2 monolayer with trypsin (Life-Technologies) to detach cells from the flask. Cells were counted in a CASY Cell Counter using a 150 um capillary and their density set at 5 * 10^4 cells per mL in supplemented assay DMEM. Infected H9c2 were dispensed into 384-well poly-lysine coated assay plates at 50uL per well using a Multidrop Combi dispenser. After seeding them, the plates were incubated at 37C, 5% CO2 for 72h. Cultures were then fixed and stained by addition of 50 uL of a solution containing 8% formaldehyde and 4 uM DRAQ5 DNA dye (BioStatus, UK) per well. […] Five images were collected per well for reliable statistical analysis. Automated image analysis was performed with a script developed on Acapella High Content Imaging and Analysis Software (PerkinElmer). Output: percentage of infected cells per well as a second infection marker.; type: functional, organism-based, Rattus norvegicus; settings: H9c2, 4 h
Trypanosoma cruzi [3] = assay: as §1, with “H2C9” for “Trypanosoma cruzi”, “H9c2 Host Cardiomyocytes.” for “Infected Cells.”, “Number” for “percentage”, “H9c2 Host Cardiomyocytes nuclei to determine drug-related cytotoxicity.” for “infected cells per well as a second infection marker.”; type: functional, organism-based, Rattus norvegicus; settings: H9c2, 4 h
[4] = biological target: Sterol 14-alpha demethylase (Trypanosoma cruzi (strain CL Brener), UniProt Q7Z1V1); assay: GSK_TCAKS: pIC50 CYP51 from Trypanosoma cruzi.; type: functional
Sterol 14-alpha demethylase, sequence (Q7Z1V1 whole entry): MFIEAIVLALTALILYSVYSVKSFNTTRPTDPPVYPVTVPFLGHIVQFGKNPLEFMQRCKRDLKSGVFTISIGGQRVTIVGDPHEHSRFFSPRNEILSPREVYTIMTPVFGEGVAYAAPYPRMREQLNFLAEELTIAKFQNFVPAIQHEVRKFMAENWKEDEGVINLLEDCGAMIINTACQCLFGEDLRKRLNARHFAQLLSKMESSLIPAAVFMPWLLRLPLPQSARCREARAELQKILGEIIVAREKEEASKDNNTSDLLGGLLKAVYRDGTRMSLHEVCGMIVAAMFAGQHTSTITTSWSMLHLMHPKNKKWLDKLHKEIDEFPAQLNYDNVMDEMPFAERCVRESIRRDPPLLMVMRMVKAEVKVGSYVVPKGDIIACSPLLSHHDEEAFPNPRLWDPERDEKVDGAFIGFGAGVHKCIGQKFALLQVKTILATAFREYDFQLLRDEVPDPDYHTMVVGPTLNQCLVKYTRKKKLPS

Trypanosoma cruzi [5] = assay: GSK_TCAKS: pIC50 Trypanosoma cruzi viability assay using beta-GAL activity. This assay was run at single shot at 5uM compound concentration per well. The biological reagents consisted of NIH-3T3 host cells and trypomastigotes parasitic cells; both cell types were set to a 3.3 * 10^5 cells/mL dilution in assay DMEM by means of a CASY cell counter device using a 60um capillary. 6 uL of the mixture were dispensed per well (about 1 * 10^3 host-cells and 1 * 10^3 parasites) with a Multidrop Combi dispenser. […] In all wells, the percentage of DMSO never exceeded 0.5%. Plates incubated for four days at 37C, 5% CO2. The substrate used for the assay fluorescence intensity (FLINT) readout was resorufin-beta-D-galactopiranoside (Sigma-Aldrich) at 5uM per well. It was diluted in PBS supplemented with the soft detergent Igepal (Fluka).; type: functional, organism-based, Mus musculus; settings: Tulahuen, NIH3T3
[6] = tested on: Trypanosoma brucei brucei; assay: GSK_TCAKS: pIC50 Trypanosoma brucei viability assay using fluorescence intensity. Assay plates (1536-well) were prepared by dispensing 25nL of compound solution per well using an Echo acoustic dispenser (Labcyte).; type: functional, organism-based; settings: Lister 427, 2 h
Leishmania donovani [7] = assay: GSK_TCAKS: pIC50 Leishmania donovani Imaging: Infected Macrophages. Assay plates (384-well) were prepared by adding 250nL of compound to each well. For single shot assay, the final compound concentration was 5 uM. […] Automated image analysis was performed with a script developed on Acapella High Content Imaging and Analysis Software (PerkinElmer). Output: Percent of infected macrophage cells were reported for each well.; type: functional, organism-based, Homo sapiens; settings: THP-1
Trypanosoma cruzi [8] = assay: GSK_TCAKS: pIC50 Trypanosoma cruzi Imaging: Amastigotes/Cell. […] Cells were then washed once with PBS before infection. T. cruzi trypomastigotes, collected at days 5 to 8 after infection from LLC-MK2 parasite infected cultures, were allowed to swim out for 4h at 37C from a centrifuged pellet (2,500 rpm/10 min/room temperature). Trypomastigotes were then collected and counted in a CASY Cell Counter. Trypomastigotes, in supplemented DMEM, were added to H9c2 cultures in a multiplicity of infection of 1 and incubated for 18 h. Cells were washed once with PBS before incubation of the infected H9c2 monolayer with trypsin (Life-Technologies) to detach cells from the flask. Cells were counted in a CASY Cell Counter using a 150 um capillary and their density set at 5 * 10^4 cells per mL in supplemented assay DMEM. Infected H9c2 were dispensed into 384-well poly-lysine coated assay plates at 50uL per well using a Multidrop Combi dispenser. After seeding them, the plates were incubated at 37C, 5% CO2 for 72h. Cultures were then fixed and stained by addition of 50 uL of a solution containing 8% formaldehyde and 4 uM DRAQ5 DNA dye (BioStatus, UK) per well. […] Five images were collected per well for reliable statistical analysis. Automated image analysis was performed with a script developed on Acapella High Content Imaging and Analysis Software (PerkinElmer). Output: number of amastigotes per cell as infection level measurement.; type: functional, organism-based, Rattus norvegicus; settings: H9c2, 4 h
Leishmania donovani [9] = assay: GSK_TCAKS: pIC50 Leishmania donovani Imaging: THP-1 Host Macrophages. Assay plates (384-well) were prepared by adding 250nL of compound to each well. For single shot assay, the final compound concentration was 5 uM. […] Automated image analysis was performed with a script developed on Acapella High Content Imaging and Analysis Software (PerkinElmer). Output: THP-1 cell count were reported for each well.; type: functional, organism-based, Homo sapiens
[10] = tested on: Trypanosoma brucei brucei; assay: GSK_TCAKS: pIC50 Trypanosoma brucei viability assay using luminiscence. Assay plates (1536-well) were prepared. T. brucei cultures were harvested and counted in a CASY cell counter. A parasite suspension was prepared at a final concentration of 5 * 10^4 cells/mL in complete HMI9 medium and 6uL was dispensed to all wells containing compounds using a Multidrop Combi dispenser. 6uL of HMI9 media with 0.4% DMSO were dispensed to control columns. Plates were incubated for 24 h at 37C, 5% CO2 then tempered for 10 min at room temperature. ATP content was quantified by adding 4 uL of CellTiter-Glo Reagent (Promega) according to the manufacturer's instructions. Luminescence was measured using a ViewLux.; type: functional, organism-based; settings: Lister 427, CASY
NIH3T3 = assay: GSK_TCAKS: pIC50 NIH 3T3 cell line viability assay using luminiscence. Tissue culture surface treated assay plates (1536-well) were used. […] The 100% cells survival control was determined exposing the host-cells to a 0.5% DMSO concentration, whereas the 100% toxicity control was achieved by seeding the cells in presence of Amphotericin B at 50uM. Plates were incubated for four days at 37C, 5% CO2. The assay readout was developed by addition of 5uL of CellTiter-Glo Reagent following the manufacturer's instructions. Luminiscence was measured using a ViewLux.; type: functional, cell-based; settings: Mus musculus, NIH3T3, 96 h
Leishmania donovani [11] = assay: GSK_TCAKS: pIC50 Leishmania donovani Imaging: Amastigotes/Macrophages. Assay plates (384-well) were prepared by adding 250nL of compound to each well. For single shot assay, the final compound concentration was 5 uM. […] Automated image analysis was performed with a script developed on Acapella High Content Imaging and Analysis Software (PerkinElmer). Output: Average number of amastigotes per macrophage cell were reported for each well.; type: functional, organism-based, Homo sapiens; settings: THP-1
Leishmania donovani [12] = assay: GSK_TCAKS: pIC50 Leishmania donovani viability assay using fluorescence intensity. Assay plates (1536-well) were prepared by adding 30nL per well of compound. For single shot assay, the final compound concentration was 5uM. […] Briefly, eGFP LdBOB axenic amastigotes were harvested, fixed and counted in a CASY cell counter (Roche-Applied Science). A final concentration of 1.5 * 10^5 cells per well were prepared in amastigote media containing 500 U/mL penicillin/streptomycin (Invitrogen) and 6uL was dispensed to each experimental well using a Multidrop Combi dispenser (Thermo Scientific). 6uL of assay media was dispensed to control columns used as reference for 100% compound response. Following incubation for 72 h at 37C, 5% CO2, 2 uL of resazurin was added to each well at a final concentration of 0.5 mM in phosphate buffered saline (PBS) with IGEPAL (Sigma-Aldrich), 0.05% (v/v).; type: functional, organism-based

Row | Structure (SMILES) | IC50 at 48 h [1] | IC50 (Trypanosoma cruzi [2]) | IC50 (Trypanosoma cruzi [3]) | IC50 [4] | IC50 (Trypanosoma cruzi [5]) | IC50 [6] | IC50 (Leishmania donovani [7]) | IC50 (Trypanosoma cruzi [8]) | IC50 (Leishmania donovani [9]) | IC50 [10] | IC50 (NIH3T3) | IC50 (Leishmania donovani [11]) | IC50 (Leishmania donovani [12])
1 | Cc1ccc2nc(N(Cc3cccnc3)C(=O)CCc3ccccc3)sc2c1 | > 100 µM | 0.0398 µM | > 50.1 µM | 0.0631 µM | 0.0398 µM | 12.6 µM | > 50.1 µM | 0.0316 µM | > 50.1 µM | 20 µM | 15.8 µM | > 50.1 µM | 25.1 µM
2 | O=C(COc1ncnc2cc([N+](=O)[O-])ccc12)NC(=O)NC1CCCCC1 | > 100 µM | 1 µM | > 50.1 µM | > 100 µM | 1.26 µM | 6.31 µM | > 50.1 µM | 0.501 µM | > 50.1 µM | > 39.8 µM | > 50.1 µM | > 50.1 µM | > 50.1 µM
3 | O=C(CSc1ccc(-c2ccccn2)nn1)Nc1ccc(Cl)cc1 | > 100 µM | 2.51 µM | > 50.1 µM | > 100 µM | 2.51 µM | 10 µM | > 50.1 µM | 2 µM | > 50.1 µM | > 39.8 µM | 31.6 µM | > 50.1 µM | > 50.1 µM
4 | O=C(Nc1cccc(F)c1)N1CCC(Oc2cccc(-c3cccnc3)c2)CC1 | > 100 µM | 0.631 µM | 25.1 µM | 0.158 µM | 0.631 µM | 25.1 µM | > 50.1 µM | 0.501 µM | 20 µM | > 39.8 µM | 39.8 µM | 0.794 µM | 0.501 µM
5 | O=[N+]([O-])c1cccc(Nc2cncc(-c3ccccc3CO)c2)c1 | > 100 µM | 0.398 µM | > 50.1 µM | 3.16 µM | 0.316 µM | > 39.8 µM | > 50.1 µM | 0.251 µM | > 50.1 µM | > 39.8 µM | 39.8 µM | > 50.1 µM | 39.8 µM
6 | O=C(NC(c1ccc(Cl)cc1)c1cnccn1)C1CCN(C(=O)Nc2cccc(C(F)(F)F)c2)CC1 (stereo not given) | > 100 µM | 0.631 µM | > 50.1 µM | 0.126 µM | 0.631 µM | 12.6 µM | > 50.1 µM | 0.501 µM | 39.8 µM | 6.31 µM | 39.8 µM | > 50.1 µM | 20 µM
7 | c1ccc2c(CCOc3nccnc3-c3ccncc3)c[nH]c2c1 | > 100 µM | 0.158 µM | > 50.1 µM | 0.0631 µM | 0.141 µM | 31.6 µM | > 50.1 µM | 0.158 µM | 20 µM | 39.8 µM | 20 µM | 20 µM | 5.01 µM
8 | O=C(Nc1ccc(Br)c(Cl)c1)Nc1ccc2c(c1)OCO2 | > 100 µM | 5.01 µM | > 50.1 µM | > 100 µM | 2.51 µM | 7.94 µM | > 50.1 µM | 2 µM | > 50.1 µM | 12.6 µM | 15.8 µM | > 50.1 µM | > 50.1 µM
9 | Clc1cc(Br)ccc1OCCCCn1ccnc1 | 50.1 µM | 0.251 µM | 25.1 µM | 0.0631 µM | 0.631 µM | 10 µM | 25.1 µM | 0.316 µM | 31.6 µM | 20 µM | 15.8 µM | 6.31 µM | 0.126 µM
10 | COc1cccc(C(=O)[C@H]2C[C@@H]2CN(Cc2cccnc2)Cc2cccnc2)c1 | > 100 µM | 0.0631 µM | > 50.1 µM | 0.0631 µM | 0.1 µM | 31.6 µM | > 50.1 µM | 0.0501 µM | 39.8 µM | > 39.8 µM | 20 µM | 7.94 µM | 0.158 µM
